Experimental data published in patent US7855213B2 (AstraZeneca AB, priority 2006, dated 2010).
Where a name gives a salt, the structure may show the parent alone.

biological target: T1, human β-Secretase (Homo sapiens, UniProt P56817); assay: TR-FRET assay; format: biochemical
T1 construct: The soluble part of the human β-Secretase (AA 1-AA 460) was cloned; made in house
T1 sequence (P56817 22-460): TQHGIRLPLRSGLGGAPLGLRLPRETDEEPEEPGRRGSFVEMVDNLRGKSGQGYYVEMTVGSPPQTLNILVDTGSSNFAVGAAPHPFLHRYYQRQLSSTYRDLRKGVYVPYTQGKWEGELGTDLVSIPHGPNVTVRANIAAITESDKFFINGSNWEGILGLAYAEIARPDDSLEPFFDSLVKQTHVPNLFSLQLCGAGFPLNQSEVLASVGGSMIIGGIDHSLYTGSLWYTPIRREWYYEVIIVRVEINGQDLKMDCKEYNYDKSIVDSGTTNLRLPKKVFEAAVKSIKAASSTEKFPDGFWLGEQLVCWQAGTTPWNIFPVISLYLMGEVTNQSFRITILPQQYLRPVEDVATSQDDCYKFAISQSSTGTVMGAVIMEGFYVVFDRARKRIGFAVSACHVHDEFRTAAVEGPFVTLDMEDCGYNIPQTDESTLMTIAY

Row | IC50 [nM] | SMILES
1 | 100 | NC1=NC(c2ccc(F)c(-c3cccnc3F)c2)(c2ccncc2F)c2ccccc21 (stereo not drawn) [Example 76, 1-[4-Fluoro-3-(2-fluoropyridin-3-yl)phenyl]-1-(3-fluoropyridin-4-yl)-1H-isoindol-3-amine 1.5 acetate]
2 | 150 | N#Cc1cncc(-c2cccc(C3(c4ccncc4)N=C(N)c4ccccc43)c2)c1 (stereo not drawn) [Example 77, 5-[3-(3-Amino-1-pyridin-4-yl-1H-isoindol-1-yl)phenyl]nicotinonitrile acetate]
3 | 54 | COc1ccc(C2(c3cccc(-c4cccnc4)c3)N=C(N)c3ccc(F)cc32)cc1 (stereo not drawn) [Example 79, 6-Fluoro-1-(4-methoxyphenyl)-1-(3-pyridin-3-ylphenyl)-1H-isoindol-3-amine]
4 | 84 | COc1ccc(C2(c3cccc(-c4cccc(OC)c4)c3)N=C(N)c3ccc(F)cc32)cc1 (stereo not drawn) [Example 80, 6-Fluoro-1-(3′-methoxybiphenyl-3-yl)-1-(4-methoxyphenyl)-1H-isoindol-3-amine]
5 | 26 | COc1ccc(C2(c3cccc(-c4cncc(OC)c4)c3)N=C(N)c3ccc(F)cc32)cc1 (stereo not drawn) [Example 81, 6-Fluoro-1-(4-methoxyphenyl)-1-[3-(5-methoxypyridin-3-yl)phenyl]-1H-isoindol-3-amine]
6 | 75 | NC1=NC(c2ccncc2)(c2cccc(-c3cccnc3)c2)c2cc(F)ccc21 (stereo not drawn) [Example 83, 6-Fluoro-1-pyridin-4-yl-1-(3-pyridin-3-ylphenyl)-1H-isoindol-3-amine]
7 | 94 | NC1=NC(c2ccncc2)(c2cccc(-c3cncnc3)c2)c2cc(F)ccc21 (stereo not drawn) [Example 84, 6-Fluoro-1-pyridin-4-yl-1-(3-pyrimidin-5-ylphenyl)-1H-isoindol-3-amine]
8 | 45 | COc1cncc(-c2cccc(C3(c4ccncc4)N=C(N)c4ccc(F)cc43)c2)c1 (stereo not drawn) [Example 85, 6-Fluoro-1-[3-(5-methoxypyridin-3-yl)phenyl]-1-pyridin-4-yl-1H-isoindol-3-amine]
9 | 47 | NC1=NC(c2ccncc2)(c2cccc(-c3cccnc3F)c2)c2cc(F)ccc21 (stereo not drawn) [Example 86, 6-Fluoro-1-[3-(2-fluoropyridin-3-yl)phenyl]-1-pyridin-4-yl-1H-isoindol-3-amine]
10 | 65 | COc1ccc(C2(c3cccc(-c4cc(Cl)cc(Cl)c4)c3)N=C(N)c3ccccc32)cc1 (stereo not drawn) [Example 88, 1-(3′,5′-Dichlorobiphenyl-3-yl)-1-(4-methoxyphenyl)-1H-isoindol-3-amine acetate]
11 | 413 | COc1ccc(C#N)c(-c2cccc(C3(C4CC4)N=C(N)c4ccccc43)c2)c1 (stereo not drawn) [Example 91, 3′-(3-Amino-1-cyclopropyl-1H-isoindol-1-yl)-5-methoxybiphenyl-2-carbonitrile acetate]
12 | 270 | NC1=NC(c2cccc(-c3cncnc3)c2)(C2CC2)c2ccccc21 (stereo not drawn) [Example 92, 1-Cyclopropyl-1-(3-pyrimidin-5-ylphenyl)-1H-isoindol-3-amine acetate]
13 | 4350 | COc1ccc(C#N)c(-c2cccc(C3(C)N=C(N)c4ccccc43)c2)c1 (stereo not drawn) [Example 93, 3′-(3-Amino-1-methyl-1H-isoindol-1-yl)-5-methoxybiphenyl-2-carbonitrile acetate]
14 | 880 | CC1(c2cccc(-c3cc(Cl)cc(Cl)c3)c2)N=C(N)c2ccccc21 (stereo not drawn) [Example 94, 1-(3′,5′-Dichlorobiphenyl-3-yl)-1-methyl-1H-isoindol-3-amine hydrochloride]
15 | 2010 | CC1(c2cccc(-c3cncnc3)c2)N=C(N)c2ccccc21 (stereo not drawn) [Example 95, 1-Methyl-1-(3-pyrimidin-5-ylphenyl)-1H-isoindol-3-amine acetate]
16 | 2200 | CC1(c2cccc(-c3cccnc3F)c2)N=C(N)c2ccccc21 (stereo not drawn) [Example 96, 1-[3-(2-Fluoropyridin-3-yl)phenyl]-1-methyl-1H-isoindol-3-amine acetate]
17 | 1000 | CC(C)C1(c2cccc(-c3cncnc3)c2)N=C(N)c2ccccc21 (stereo not drawn) [Example 97, 1-Isopropyl-1-(3-pyrimidin-5-ylphenyl)-1H-isoindol-3-amine acetate]
18 | 2000 | CC1(c2cccc(-c3cncc(F)c3)c2)N=C(N)c2ccccc21 (stereo not drawn) [Example 98, 1-[3-(5-Fluoropyridin-3-yl)phenyl]-1-methyl-1H-isoindol-3-amine acetate]
19 | 220 | COc1ccc(F)c(-c2cccc(C3(c4ccncc4F)N=C(N)c4ccccc43)c2)c1 (stereo not drawn) [Example 99, 1-(2′-Fluoro-5′-methoxybiphenyl-3-yl)-1-(3-fluoropyridin-4-yl)-1H-isoindol-3-amine]
20 | 220 | COc1cccc(-c2cccc(C3(c4ccncc4F)N=C(N)c4ccccc43)c2)c1F (stereo not drawn) [Example 100, 1-(2′-Fluoro-3′-methoxybiphenyl-3-yl)-1-(3-fluoropyridin-4-yl)-1H-isoindol-3-amine]
21 | 230 | COc1cccc(-c2cc(C3(c4ccncc4F)N=C(N)c4ccccc43)ccc2F)c1F (stereo not drawn) [Example 101, 1-(2′,6-Difluoro-3′-methoxybiphenyl-3-yl)-1-(3-fluoropyridin-4-yl)-1H-isoindol-3-amine]

Row | IC50 [nM] | SMILES
22 | 310 | N#Cc1cncc(-c2cccc(C3(c4ccncc4F)N=C(N)c4ccccc43)c2)c1 (stereo not drawn) [Example 102, 5-{3-[3-Amino-1-(3-fluoropyridin-4-yl)-1H-isoindol-1-yl]phenyl}nicotinonitrile]
23 | 110 | COc1ccc(F)c(-c2cccc(C3(c4ccncc4)N=C(N)c4ccccc43)c2)c1 (stereo not drawn) [Example 103, 1-(2′-Fluoro-5′-methoxybiphenyl-3-yl)-1-pyridin-4-yl-1H-isoindol-3-amine]
24 | 59 | COc1cccc(-c2cccc(C3(c4ccncc4)N=C(N)c4ccccc43)c2)c1F (stereo not drawn) [Example 104, 1-(2′-Fluoro-3′-methoxybiphenyl-3-yl)-1-pyridin-4-yl-1H-isoindol-3-amine]
25 | 29 | NC1=NC(c2ccncc2)(c2ccc(F)c(-c3cccnc3F)c2)c2ccccc21 (stereo not drawn) [Example 105, 1-[4-Fluoro-3-(2-fluoropyridin-3-yl)phenyl]-1-pyridin-4-yl-1H-isoindol-3-amine]
26 | 440 | COc1ncc(C2(c3cccc(-c4cccnc4F)c3)N=C(N)c3ccccc32)cn1 (stereo not drawn) [Example 107, 1-[3-(2-Fluoropyridin-3-yl)phenyl]-1-(2-methoxypyrimidin-5-yl)-1H-isoindol-3-amine]
27 | 970 | COc1ncc(C2(c3cccc(-c4cncnc4)c3)N=C(N)c3ccccc32)cn1 (stereo not drawn) [Example 108, 1-(2-Methoxypyrimidin-5-yl)-1-(3-pyrimidin-5-ylphenyl)-1H-isoindol-3-amine]
28 | 750 | COc1ncc(C2(c3cccc(-c4cccc(OC)c4F)c3)N=C(N)c3ccccc32)cn1 (stereo not drawn) [Example 109, 1-(2′-Fluoro-3′-methoxybiphenyl-3-yl)-1-(2-methoxypyrimidin-5-yl)-1H-isoindol-3-amine]
29 | 95 | CCc1cc(C2(c3cccc(-c4cncnc4)c3)N=C(N)c3ccccc32)ccn1 (stereo not drawn) [Example 111, 1-(2-Ethylpyridin-4-yl)-1-(3-pyrimidin-5-ylphenyl)-1H-isoindol-3-amine]
30 | 96 | CCc1cc(C2(c3cccc(-c4cccnc4F)c3)N=C(N)c3ccccc32)ccn1 (stereo not drawn) [Example 112, 1-(2-Ethylpyridin-4-yl)-1-[3-(2-fluoropyridin-3-yl)phenyl]-1H-isoindol-3-amine]
31 | 300 | CC(C)c1cc(C2(c3cccc(-c4cncnc4)c3)N=C(N)c3ccccc32)ccn1 (stereo not drawn) [Example 114, 1-(2-Isopropylpyridin-4-yl)-1-(3-pyrimidin-5-ylphenyl)-1H-isoindol-3-amine]
32 | 210 | CC(C)c1cc(C2(c3cccc(-c4cccnc4F)c3)N=C(N)c3ccccc32)ccn1 (stereo not drawn) [Example 115, 1-[3-(2-Fluoropyridin-3-yl)phenyl]-1-(2-isopropylpyridin-4-yl)-1H-isoindol-3-amine]
33 | 100 | NC1=NC(c2cccc(-c3cccnc3F)c2)(c2ccnc(F)c2)c2ccccc21 (stereo not drawn) [Example 117, 1-(2-Fluoropyridin-4-yl)-1-[3-(2-fluoropyridin-3-yl)phenyl]-1H-isoindol-3-amine]
34 | 110 | COc1cc(C2(c3cccc(-c4cccnc4F)c3)N=C(N)c3ccccc32)ccn1 (stereo not drawn) [Example 119, 1-[3-(2-Fluoropyridin-3-yl)phenyl]-1-(2-methoxypyridin-4-yl)-1H-isoindol-3-amine]
35 | 80 | NC1=NC(c2cccc(-c3cccnc3F)c2)(c2ccnc(Cl)c2)c2ccccc21 (stereo not drawn) [Example 121, 1-(2-Chloropyridin-4-yl)-1-[3-(2-fluoropyridin-3-yl)phenyl]-1H-isoindol-3-amine]
36 | 160 | NC1=NC(c2cccc(-c3cncnc3)c2)(c2ccnc(Cl)c2)c2ccccc21 (stereo not drawn) [Example 122, 1-(2-Chloropyridin-4-yl)-1-(3-pyrimidin-5-ylphenyl)-1H-isoindol-3-amine]
37 | 560 | NC1=NC(c2cncc(F)c2)(c2cccc(-c3cccnc3F)c2)c2ccccc21 (stereo not drawn) [Example 124, 1-(5-Fluoropyridin-3-yl)-1-[3-(2-fluoropyridin-3-yl)phenyl]-1H-isoindol-3-amine]
38 | 810 | NC1=NC(c2cncc(F)c2)(c2cccc(-c3cncnc3)c2)c2ccccc21 (stereo not drawn) [Example 125, 1-(5-Fluoropyridin-3-yl)-1-(3-pyrimidin-5-ylphenyl)-1H-isoindol-3-amine]
39 | 33 | COc1ccc(C2(c3ccc(F)c(-c4cncnc4)c3)N=C(N)c3ccccc32)cc1C (stereo not drawn) [Example 127, 1-(4-Fluoro-3-pyrimidin-5-ylphenyl)-1-(4-methoxy-3-methylphenyl)-1H-isoindol-3-amine]
40 | 40 | COc1ccc(C2(c3ccc(F)c(-c4cccnc4F)c3)N=C(N)c3ccccc32)cc1C (stereo not drawn) [Example 128, 1-[4-Fluoro-3-(2-fluoropyridin-3-yl)phenyl]-1-(4-methoxy-3-methylphenyl)-1H-isoindol-3-amine]
41 | 85 | NC1=NC(c2ccncc2)(c2cccc(-c3cncnc3)c2)c2cc(Cl)ccc21 (stereo not drawn) [Example 129, 6-Chloro-1-pyridin-4-yl-1-(3-pyrimidin-5-ylphenyl)-1H-isoindol-3-amine]
42 | 1300 | NC1=NC(c2ccc(C(F)(F)F)nc2)(c2cccc(-c3cncnc3)c2)c2ccccc21 (stereo not drawn) [Example 130, 1-(3-Pyrimidin-5-ylphenyl)-1-[6-(trifluoromethyl)pyridin-3-yl]-1H-isoindol-3-amine 0.66 acetate]
